Results: PMC13358776, “Discovery of Two GSK3β Inhibitors from Sophora flavescens Ait. using Structure-based Virtual Screening and Bioactivity Evaluation” (Current Computer-Aided Drug Design, 2024)

Molecular target: T1, GSK3β (Homo sapiens, UniProt P49841)
T1 construct: gene GSK3B
Assay: Kinase-Glo Plus luminescent enzymatic assay, […] ATP
Format: biochemical

T1 sequence (P49841 whole entry): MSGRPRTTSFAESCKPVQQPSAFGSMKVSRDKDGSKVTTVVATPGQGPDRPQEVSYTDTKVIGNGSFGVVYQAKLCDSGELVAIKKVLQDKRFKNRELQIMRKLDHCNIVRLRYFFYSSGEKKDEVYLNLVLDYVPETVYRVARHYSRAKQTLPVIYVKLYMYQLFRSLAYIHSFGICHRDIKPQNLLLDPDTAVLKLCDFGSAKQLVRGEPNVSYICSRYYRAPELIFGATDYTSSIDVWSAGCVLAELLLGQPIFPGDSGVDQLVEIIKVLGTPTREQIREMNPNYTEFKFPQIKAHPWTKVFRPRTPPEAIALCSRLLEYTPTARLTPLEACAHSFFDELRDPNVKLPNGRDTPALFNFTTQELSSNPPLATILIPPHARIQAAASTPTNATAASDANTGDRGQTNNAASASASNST

## kushenol F [MOL006617]
  IC50: 4.96 ± 1.29 µM
